Assay results taken from the RepoRT retention time repository.

Experiment: HILIC, Waters ACQUITY UPLC BEH Amide, 100 × 2.1 mm, 1.7 µm; A: water + 0.125% formic acid + 10 mM ammonium formate; B: 5% water + 95% acetonitrile + 0.125% formic acid + 10 mM ammonium formate; gradient (min/%B) 0/100 2/100 7.7/70 9.5/40 10.25/30 12.75/100 17/100
Conditions: stereoisomer not certain

Row | SMILES | LC retention time [min]
1 | Nc1nc2c(ncn2C2OC(CO)C(O)C2O)c(=O)[nH]1 (stereo not drawn) [Guanosine] | 7.33
2 | CC1CC2C3CC(F)C4=CC(=O)C(Cl)=CC4(C)C3(F)C(O)CC2(C)C1(O)C(=O)CO (stereo not drawn) [Halometasone] | 1.12
3 | O=C(CCCN1CCC(O)(c2ccc(Cl)cc2)CC1)c1ccc(F)cc1 [Haloperidol] | 2.31
4 | CCCCCCCCCCCCCCCCC(=O)O [Heptadecanoic acid] | 3.01
5 | CCCCCC(=O)O [Hexanoic acid] | 4.89
6 | CCCCCC(=O)OC(CC(=O)[O-])C[N+](C)(C)C [Hexanoyl-L-carnitine] | 5.09
7 | CC(CCCCC(=O)Nc1ccc(C(F)(F)F)cc1)NCCc1cnc[nH]1 (stereo not drawn) [Histamine-trifluoromethyltoluide] | 5.3
8 | NCCc1cnc[nH]1 [Histamine] | 8.29
9 | NC(Cc1cnc[nH]1)C(=O)O (stereo not drawn) [Histidine] | 9.48
10 | NC(N)=NCCCCC(N)C(=O)O (stereo not drawn) [Homoarginine] | 9.34
11 | NC(CCS)C(=O)O (stereo not drawn) [Homocysteine] | 9.58
12 | NC(CCSSCCC(N)C(=O)O)C(=O)O (stereo not drawn) [Homocystine] | 9.58
13 | COC(=O)CC(O)(CCCC(C)(C)O)C(=O)OC1C(OC)=CC23CCCN2CCc2cc4c(cc2C13)OCO4 (stereo not drawn) [Homoharringtonine] | 3.24
14 | NC(CCO)C(=O)O (stereo not drawn) [Homoserine] | 8.29
15 | COc1ccc(CCN)cc1OC [Homoveratrylamine] | 4.78
16 | CC=C1C2C=C(C)CC1(N)c1ccc(=O)[nH]c1C2 (stereo not drawn) [Huperzine] | 5.74
17 | O=C(O)CCc1ccccc1 [Hydrocinnamic acid] | 8.71
18 | COc1ccc2c3c1OC1C(=O)CCC4C(C2)N(C)CCC314 (stereo not drawn) [Hydrocodone] | 3.8
19 | CC12CCC(=O)C=C1CCC1C2C(O)CC2(C)C1CCC2(O)C(=O)CO (stereo not drawn) [Hydrocortisone] | 2.56
20 | CN1CCC23c4c5ccc(O)c4OC2C(=O)CCC3C1C5 (stereo not drawn) [Hydromorphone] | 5.22
21 | O=C(O)C1CC(O)CN1 (stereo not drawn) [Hydroxyproline] | 8.14
22 | O=c1[nH]cnc2nc[nH]c12 [Hypoxanthine] | 4.99

Row | SMILES | LC retention time [min]
23 | COc1ccc(-c2oc3c(CC=C(C)C)c(OC4OC(CO)C(O)C(O)C4O)cc(O)c3c(=O)c2OC2OC(C)C(O)C(O)C2O)cc1 (stereo not drawn) [Icarin] | 4.74
24 | CC(=O)C1(O)Cc2c(O)c3c(c(O)c2C(OC2CC(N)C(O)C(C)O2)C1)C(=O)c1ccccc1C3=O (stereo not drawn) [Idarubicin] | 5.42
25 | COC1=C(OC)C(=O)C(CCCCCCCCCCO)=C(C)C1=O [Idebenone] | 0.96
26 | CC(C(O)c1ccc(O)cc1)N1CCC(Cc2ccccc2)CC1 (stereo not drawn) [Ifenprodil] | 3.17
27 | Cc1ccc(NC(=O)c2ccc(CN3CCN(C)CC3)cc2)cc1Nc1nccc(-c2cccnc2)n1 [Imatinib] | 5.36
28 | c1c[nH]cn1 [Imidazole] | 4.53
29 | O=C1C(c2c(O)[nH]c3ccccc23)=Nc2ccccc21 [Indarubicin] | 1.07
30 | CNC1CC(c2ccc(Cl)c(Cl)c2)c2ccccc21 (stereo not drawn) [Indatraline] | 2.88
31 | CC(C)(C)NC(=O)C1CN(Cc2cccnc2)CCN1CC(O)CC(Cc1ccccc1)C(=O)NC1c2ccccc2CC1O (stereo not drawn) [Indinavir] | 2.17
32 | NC(=O)Cc1c[nH]c2ccccc12 [Indole-3-acetamide] | 1.36
33 | OCc1c[nH]c2ccccc12 [Indole-3-carbinol] | 1.24
34 | O=Cc1c[nH]c2ccccc12 [Indole-3-carboxaldehyde] | 1.16
35 | O=C(O)c1c[nH]c2ccccc12 [Indole-3-carboxylic acid] | 1.41
36 | O=C(O)C(=O)Cc1c[nH]c2ccccc12 [Indole-3-pyruvic acid] | 5.11
37 | O=C(O)C(O)Cc1c[nH]c2ccccc12 (stereo not drawn) [Indolelactic acid] | 2.25
38 | COc1ccc2c(c1)c(CC(=O)O)c(C)n2C(=O)c1ccc(Cl)cc1 [Indomethacin] | 1.08
39 | O=c1[nH]cnc2c1ncn2C1OC(CO)C(O)C1O (stereo not drawn) [Inosine] | 6.19
40 | Nc1c2c(nc3c1CCC3)CCCC2 [Ipidacrine] | 3.33
41 | CC(C)Oc1ccc2c(=O)c(-c3ccccc3)coc2c1 [Ipriflavone] | 0.94
42 | CCCCC1=NC2(CCCC2)C(=O)N1Cc1ccc(-c2ccccc2-c2nn[nH]n2)cc1 [Irbesartan] | 1.16
43 | CCc1c2c(nc3ccc(OC(=O)N4CCC(N5CCCCC5)CC4)cc13)-c1cc3c(c(=O)n1C2)COC(=O)C3(O)CC (stereo not drawn) [Irinotecan] | 5.03
44 | Nc1nc(N)nc(-c2cc(Cl)ccc2Cl)n1 [Irsogladine] | 1.25

Row | SMILES | LC retention time [min]
45 | CC(C)CN [Isobutylamine] | 5.04
46 | CC(C)C(=O)O [Isobutyric acid] | 1.77
47 | CCC(C)C(N)C(=O)O (stereo not drawn) [Isoleucine] | 7.18
48 | OCC1OC(OCC2OC(O)C(O)C(O)C2O)C(O)C(O)C1O (stereo not drawn) [Isomaltose] | 7.19
49 | CC(C)=CCNc1ncnc2nc[nH]c12 [Isopentenyladenine] | 1.81
50 | COc1cc(-c2oc3cc(O)cc(O)c3c(=O)c2OC2OC(COC3OC(C)C(O)C(O)C3O)C(O)C(O)C2O)ccc1O (stereo not drawn) [Isorhamnetin-3-O-rutinoside] | 6.02
51 | COc1cc(-c2oc3cc(O)cc(O)c3c(=O)c2OC2OC(CO)C(O)C(O)C2O)ccc1O (stereo not drawn) [Isorhamnetin-3-glucoside] | 4.49
52 | CC(C)CC(=O)OC(CC(=O)[O-])C[N+](C)(C)C [Isovaleryl-L-carnitine] | 5.36
53 | Nc1nc2[nH]c(=O)cnc2c(=O)[nH]1 [Isoxanthopterin] | 6.41
54 | COC(=O)C1=C(C)NC(C)=C(C(=O)OC(C)C)C1c1cccc2nonc12 (stereo not drawn) [Isradipine] | 0.95
55 | COc1ccc(C(=O)NCc2ccc(OCCN(C)C)cc2)cc1OC [Itopride] | 3.65
56 | CCC(C)n1ncn(-c2ccc(N3CCN(c4ccc(OCC5COC(Cn6cncn6)(c6ccc(Cl)cc6Cl)O5)cc4)CC3)cc2)c1=O (stereo not drawn) [Itraconzaole] | 0.97
57 | CC1OC(OCC2OC(Oc3c(-c4ccc(O)cc4)oc4cc(O)cc(O)c4c3=O)C(O)C(O)C2O)C(O)C(O)C1O (stereo not drawn) [Kaempferol-3-O-rutinoside] | 6.09
58 | O=c1c(O)c(-c2ccc(O)cc2)oc2cc(O)cc(O)c12 [Kaempferol] | 1.4
59 | CC(=O)N1CCN(c2ccc(OCC3COC(Cn4ccnc4)(c4ccc(Cl)cc4Cl)O3)cc2)CC1 (stereo not drawn) [Ketoconazole] | 1.73
60 | CC(C)C(=O)C(=O)O [Ketoisovaleric acid] | 2.84
61 | CN1CCC(=C2c3ccccc3CC(=O)c3sccc32)CC1 [Ketotifen] | 2.71
62 | COC1C(O)CC(=O)OC(C)CC=CC=CC(O)C(C)CC(CC=O)C1OC1OC(C)C(OC2CC(C)(O)C(OC(=O)CC(C)C)C(C)O2)C(N(C)C)C1O (stereo not drawn) [Kitasamycin] | 2.04
63 | O=C(O)c1cc(=O)c2ccccc2[nH]1 [Kynurenic acid] | 6.15
64 | Nc1ccccc1C(=O)CC(N)C(=O)O (stereo not drawn) [Kynurenine] | 6.98
65 | CS(=O)(=O)Nc1ccc(Cc2noc(-c3ccc4[nH]cc(CCN)c4c3)n2)cc1 [L-694,247] | 5.25
66 | NC(CCC(=O)NC(CSSCC(N)C(=O)O)C(=O)NCC(=O)O)C(=O)O [L-Cysteine-glutathione disulfide] | 10.2

Row | SMILES | LC retention time [min]
67 | NC(=O)NCCCC[C@H](N)C(=O)O [L-Homocitrulline] | 8.73
68 | CCOC(=O)C1=C(C)NC(C)=C(C(=O)OCC)C1c1ccccc1C=CC(=O)OC(C)(C)C [Lacidipine] | 0.94
69 | CC(O)C(N)=O (stereo not drawn) [Lactamide] | 1.74
70 | OCC(O)C(O)C(OC1OC(CO)C(O)C(O)C1O)C(O)CO (stereo not drawn) [Lactitol] | 8.99
71 | Nc1ccn(C2CSC(CO)O2)c(=O)n1 (stereo not drawn) [Lamivudine] | 3.4
72 | Nc1nnc(-c2cccc(Cl)c2Cl)c(N)n1 [Lamotrigine] | 1.98
73 | CC(C)OC(=O)CCCC=CCC1C(O)CC(O)C1CCC(O)CCc1ccccc1 (stereo not drawn) [Latanoprost] | 1.06
74 | CCCCCCCCCCCC(=O)OC(CC(=O)[O-])C[N+](C)(C)C [Lauroyl-L-carnitine] | 3.63
75 | N#Cc1ccc(C(c2ccc(C#N)cc2)n2cncn2)cc1 [Letrozol] | 0.98
76 | CC(C)CC(N)C(=O)NC(C)C(=O)O (stereo not drawn) [Leu-Ala] | 5
77 | CC(C)CC(N)C(=O)NC(CCCN=C(N)N)C(=O)O (stereo not drawn) [Leu-Arg] | 8.86
78 | CC(C)CC(N)C(=O)N1CCCC1C(=O)O (stereo not drawn) [Leu-Pro] | 7.32
79 | CC(C)CC(N)C(=O)O (stereo not drawn) [Leucine] | 7.08
80 | c1ccc(C2CN3CCSC3=N2)cc1 (stereo not drawn) [Levamisole] | 2.95
81 | CCC(C(N)=O)N1CCCC1=O (stereo not drawn) [Levetiracetam] | 1.45
82 | O=C(O)COCCN1CCN(C(c2ccccc2)c2ccc(Cl)cc2)CC1 (stereo not drawn) [Levocetirizine] | 2.9
83 | C#CC1(O)CCC2C3CCC4=CC(=O)CCC4C3CCC21CC (stereo not drawn) [Levonorgestrel] | 0.99
84 | CCN1CCCC1CNC(=O)c1cc(S(N)(=O)=O)ccc1OC (stereo not drawn) [Levosulpiride] | 4.37
85 | CCN(CC)CC(=O)Nc1c(C)cccc1C [Lidocaine] | 1.97
86 | C=C(C)C1CC=C(C)CC1 (stereo not drawn) [Limonene] | 0.92
87 | C=CC(C)(O)CCC=C(C)C (stereo not drawn) [Linalool] | 0.97
88 | CC(=O)NCC1CN(c2ccc(N3CCOCC3)c(F)c2)C(=O)O1 (stereo not drawn) [Linezolide] | 1.15
